According to PMC7501296, “Rapid and direct control of target protein levels with VHL-recruiting dTAG molecules” (Nature Communications, 2020):

Columns and labels:
LACZ-FKBP12^F36V = experiment: Immunoblot of PATU-8902 LACZ-FKBP12F36V clone; format: cell-based; conditions: PATU-8902 LACZ-FKBP12F36V cells, 4 h
Procedure: PATU-8902 LACZ-FKBP12^F36V and FKBP12^F36V-KRAS^G12V; KRAS^−/− cells and 293T cells were lysed with RIPA buffer supplemented with cOmplete protease inhibitors (Roche), PhosSTOP phosphatase inhibitors (Roche), and 0.1% benzonase (Novagen). Proteins were separated using NuPAGE Bolt^TM Bis–Tris gels (Thermo Fisher Scientific) and transferred to nitrocellulose membranes, which were blocked with Odyssey Blocking Buffer (LI-COR) and incubated with primary antibodies overnight. Membranes were washed three times with TBS-T, incubated with the appropriate fluorescently labeled infrared secondary antibodies, washed again three times with TBS-T, and assessed using an Odyssey CLx Imager (LI-COR)[6],[15]. EWS502 cells were lysed with Cell Lysis Buffer (Cell Signaling Technology) supplemented with cOmplete protease inhibitors (Roche). Proteins were separated using SDS-PAGE gels and transferred to PVDF membranes, which were blocked with 5% milk in TBS-T and incubated with primary antibodies overnight. Membranes were washed five times with TBS-T, incubated with the appropriate horseradish peroxidase-conjugated secondary antibodies, washed again five times with TBS-T, and imaged. […]

MED14 = test system: MED14; parameters: method as in PMID 32483291; conditions: HCT116 cells; cited from earlier work

CC[C@H](C(=O)N1CCCC[C@H]1C(=O)O[C@H](CCc1ccc(OC)c(OC)c1)c1ccccc1OCC(=O)NCCCCCCC(=O)N[C@H](C(=O)N1C[C@H](O)C[C@H]1C(=O)N[C@@H](C)c1ccc(-c2scnc2C)cc1)C(C)(C)C)c1cc(OC)c(OC)c(OC)c1 [dTAG^V-1]
Degradation of FKBP12F36V-fusion (LACZ-FKBP12F36V), immunoblot (LACZ-FKBP12^F36V): effective degradation
Degradation of MED14 (MED14): effective degradation
